Results taken from US7183276B2, “Azole compounds” (Takeda Pharmaceutical Company Limited, priority 2002, dated 2007).

Row | SMILES | melting point [°C]
1 | CNC(=O)Cc1ccc(NC(=O)CCc2oc(-n3cnc4ccccc43)nc2-c2ccc(Cl)cc2)cc1 [Example 143, 2-[4-({3-[2-(1H-benzimidazol-1-yl)-4-(4-chlorophenyl)-5-oxazolyl]propanoyl}amino)phenyl]-N-methylacetamide] | 219 to 221
2 | CC(C)(C)c1ccc(CNC(=O)CCc2oc(-n3cnc4ccccc43)nc2-c2ccc(Cl)cc2)cc1 [Example 144, 3-[2-(1H-benzimidazol-1-yl)-4-(4-chlorophenyl)-5-oxazolyl]-N-[4-tert-butylbenzyl]propionamide] | 170 to 171
3 | COc1ccc(CNC(=O)CCc2oc(-n3cnc4ccccc43)nc2-c2ccc(Cl)cc2)cc1 [Example 145, 3-[2-(1H-benzimidazol-1-yl)-4-(4-chlorophenyl)-5-oxazolyl]-N-(4-methoxybenzyl)propionamide] | 210 to 212
4 | Cc1ccc(CNC(=O)CCc2oc(-n3cnc4ccccc43)nc2-c2ccc(Cl)cc2)cc1 [Example 146, 3-[2-(1H-benzimidazol-1-yl)-4-(4-chlorophenyl)-5-oxazolyl]-N-(4-methylbenzyl)propionamide] | 210 to 212
5 | O=C(CCc1oc(-n2cnc3ccccc32)nc1-c1ccc(Cl)cc1)NCc1ccc(Cl)c(Cl)c1 [Example 147, 3-[2-(1H-benzimidazol-1-yl)-4-(4-chlorophenyl)-5-oxazolyl]-N-(3,4-dichlorobenzyl)propionamide] | 190 to 191
6 | O=C(CCc1oc(-n2cnc3ccccc32)nc1-c1ccc(Cl)cc1)NCC(=O)NCc1ccccc1 [Example 148, 2-({3-[2-(1H-benzimidazol-1-yl)-4-(4-chlorophenyl)-5-oxazolyl]propanoyl}amino)-N-benzylacetamide] | 186 to 187
7 | O=C(CCc1oc(-n2cnc3ccccc32)nc1-c1ccc(Cl)cc1)NCC(=O)Nc1ccccc1 [Example 149, 2-({3-[2-(1H-benzimidazol-1-yl)-4-(4-chlorophenyl)-5-oxazolyl]propanoyl}amino)-N-phenylacetamide] | 250 to 251
8 | O=C(CCc1oc(-n2cnc3ccccc32)nc1-c1ccc(Cl)cc1)NCc1ccc(-c2csnn2)cc1 [Example 150, 3-[2-(1H-benzimidazol-1-yl)-4-(4-chlorophenyl)-5-oxazolyl]-N-[4-(1,2,3-thiadiazol-4-yl)benzyl]propionamide] | 173 to 174
9 | NS(=O)(=O)c1ccc(CNC(=O)CCc2oc(-n3cnc4ccccc43)nc2-c2ccc(Cl)cc2)cc1 [Example 151, N-[4-(aminosulfonyl)benzyl]-3-[2-(1H-benzimidazol-1-yl)-4-(4-chlorophenyl)-5-oxazolyl]propionamide] | 255 to 256
10 | O=C(CCc1oc(-n2cnc3ccccc32)nc1-c1ccc(Cl)cc1)NCc1ccc(Cl)cc1 [Example 152, 3-[2-(1H-benzimidazol-1-yl)-4-(4-chlorophenyl)-5-oxazolyl]-N-(4-chlorobenzyl)propionamide] | 190 to 191
11 | O=C(CCc1oc(-n2cnc3ccccc32)nc1-c1ccc(Cl)cc1)NCc1ccc(-c2ccccc2)cc1 [Example 153, 3-[2-(1H-benzimidazol-1-yl)-4-(4-chlorophenyl)-5-oxazolyl]-N-(4-phenylbenzyl)propionamide] | 214 to 216
12 | O=C(CCc1oc(-n2cnc3ccccc32)nc1-c1ccc(Cl)cc1)NCc1ccccn1 [Example 154, 3-[2-(1H-benzimidazol-1-yl)-4-(4-chlorophenyl)-5-oxazolyl]-N-(2-pyridinylmethyl)propionamide] | 157 to 158
13 | O=C(CCc1oc(-n2cnc3ccccc32)nc1-c1ccc(Cl)cc1)NCc1ccncc1 [Example 155, 3-[2-(1H-benzimidazol-1-yl)-4-(4-chlorophenyl)-5-oxazolyl]-N-(4-pyridinylmethyl)propionamide] | 214 to 216
14 | O=C(CCc1oc(-n2cnc3ccccc32)nc1-c1ccc(Cl)cc1)NCc1c(F)cccc1F [Example 156, 3-[2-(1H-benzimidazol-1-yl)-4-(4-chlorophenyl)-5-oxazolyl]-N-(2,6-difluorobenzyl)propionamide] | 225 to 226
15 | O=C(CCc1oc(-n2cnc3ccccc32)nc1-c1ccc(Cl)cc1)NCc1ccccc1C(F)(F)F [Example 157, 3-[2-(1H-benzimidazol-1-yl)-4-(4-chlorophenyl)-5-oxazolyl]-N-[2-(trifluoromethyl)benzyl]propionamide] | 208 to 209
16 | O=C(CCc1oc(-n2cnc3ccccc32)nc1-c1ccc(Cl)cc1)NCc1cc(F)ccc1F [Example 158, 3-[2-(1H-benzimidazol-1-yl)-4-(4-chlorophenyl)-5-oxazolyl]-N-(2,5-difluorobenzyl)propionamide] | 197 to 198
17 | O=C(CCc1oc(-n2cnc3ccccc32)nc1-c1ccc(Cl)cc1)NCc1ccc(Cl)cc1F [Example 159, 3-[2-(1H-benzimidazol-1-yl)-4-(4-chlorophenyl)-5-oxazolyl]-N-(4-chloro-2-fluorobenzyl)propionamide] | 189 to 191
18 | O=C(CCc1oc(-n2cnc3ccccc32)nc1-c1ccc(Cl)cc1)NCc1ccc(F)cc1F [Example 160, 3-[2-(1H-benzimidazol-1-yl)-4-(4-chlorophenyl)-5-oxazolyl]-N-(2,4-difluorobenzyl)propionamide] | 190 to 191

Row | SMILES | melting point [°C]
19 | COc1cc(OC)c(CNC(=O)CCc2oc(-n3cnc4ccccc43)nc2-c2ccc(Cl)cc2)c(OC)c1 [Example 161, 3-[2-(1H-benzimidazol-1-yl)-4-(4-chlorophenyl)-5-oxazolyl]-N-(2,4,6-trimethoxybenzyl)propionamide] | 206 to 208
20 | O=C(CCc1oc(-n2cnc3ccccc32)nc1-c1ccc(Cl)cc1)NCCOc1ccccc1 [Example 162, 3-[2-(1H-benzimidazol-1-yl)-4-(4-chlorophenyl)-5-oxazolyl]-N-(2-phenoxyethyl)propionamide] | 156 to 157
21 | O=C(CCc1oc(-n2cnc3ccccc32)nc1-c1ccc(Cl)cc1)NCc1cc(F)cc(C(F)(F)F)c1 [Example 163, 3-[2-(1H-benzimidazol-1-yl)-4-(4-chlorophenyl)-5-oxazolyl]-N-[3-fluoro-5-(trifluoromethyl)benzyl]propionamide] | 198 to 200
22 | O=C(CCc1oc(-n2cnc3ccccc32)nc1-c1ccc(Cl)cc1)NCc1cc(F)cc(F)c1 [Example 164, 3-[2-(1H-benzimidazol-1-yl)-4-(4-chlorophenyl)-5-oxazolyl]-N-(3,5-difluorobenzyl)propionamide] | 155 to 156
23 | NS(=O)(=O)c1ccc(CNC(=O)CCc2oc(-c3ccccc3)nc2-c2ccc(Cl)cc2)cc1 [Example 165, N-[4-(aminosulfonyl)benzyl]-3-[4-(4-chlorophenyl)-2-phenyl-5-oxazolyl]propionamide] | 225 to 227
24 | Cc1ccc(CNC(=O)CCc2oc(-c3ccccc3)nc2-c2ccc(Cl)cc2)cc1 [Example 166, 3-[4-(4-chlorophenyl)-2-phenyl-5-oxazolyl]-N-(4-methylbenzyl)propionamide] | 193 to 194
25 | O=C(CCc1oc(-n2cnc3ccccc32)nc1-c1ccc(Cl)cc1)NCc1cc(Br)ccc1F [Example 167, 3-[2-(1H-benzimidazol-1-yl)-4-(4-chlorophenyl)-5-oxazolyl]-N-(5-bromo-2-fluorobenzyl)propionamide] | 183 to 184
26 | O=C(CCc1oc(-n2cnc3ccccc32)nc1-c1ccc(Cl)cc1)NCc1ccc(F)cc1Cl [Example 168, 3-[2-(1H-benzimidazol-1-yl)-4-(4-chlorophenyl)-5-oxazolyl]-N-(2-chloro-4-fluorobenzyl)propionamide] | 196 to 198
27 | COc1cc(CNC(=O)CCc2oc(-n3cnc4ccccc43)nc2-c2ccc(Cl)cc2)cc(OC)c1OC [Example 169, 3-[2-(1H-benzimidazol-1-yl)-4-(4-chlorophenyl)-5-oxazolyl]-N-(3,4,5-trimethoxybenzyl)propionamide] | 169 to 170
28 | O=C(CCc1oc(-n2cnc3ccccc32)nc1-c1ccc(Cl)cc1)NCc1ccc(F)c(Br)c1 [Example 170, 3-[2-(1H-benzimidazol-1-yl)-4-(4-chlorophenyl)-5-oxazolyl]-N-(3-bromo-4-fluorobenzyl)propionamide] | 206 to 207
29 | O=C(CCc1oc(-n2cnc3ccccc32)nc1-c1ccc(Cl)cc1)NCc1cccc(Br)c1 [Example 171, 3-[2-(1H-benzimidazol-1-yl)-4-(4-chlorophenyl)-5-oxazolyl]-N-(3-bromobenzyl)propionamide] | 181 to 183
30 | O=C(CCc1oc(-n2cnc3ccccc32)nc1-c1ccc(Cl)cc1)NCc1ccc(Br)cc1 [Example 172, 3-[2-(1H-benzimidazol-1-yl)-4-(4-chlorophenyl)-5-oxazolyl]-N-(4-bromobenzyl)propionamide] | 205 to 206
31 | O=C(CCc1oc(-n2cnc3ccccc32)nc1-c1ccc(Cl)cc1)NCc1ccc(F)c(Cl)c1 [Example 173, 3-[2-(1H-benzimidazol-1-yl)-4-(4-chlorophenyl)-5-oxazolyl]-N-(3-chloro-4-fluorobenzyl)propionamide] | 188 to 189
32 | O=C(CCc1oc(-n2cnc3ccccc32)nc1-c1ccc(Cl)cc1)NCc1cc(Cl)ccc1Cl [Example 174, 3-[2-(1H-benzimidazol-1-yl)-4-(4-chlorophenyl)-5-oxazolyl]-N-(2,5-dichlorobenzyl)propionamide] | 205 to 207
33 | Cc1ccc(CNC(=O)CCc2oc(-n3cnc4ccccc43)nc2-c2ccc(Cl)cc2)c(C)c1 [Example 175, 3-[2-(1H-benzimidazol-1-yl)-4-(4-chlorophenyl)-5-oxazolyl]-N-(2,4-dimethylbenzyl)propionamide] | 218 to 219
34 | Cc1ccc(Cl)cc1CNC(=O)CCc1oc(-n2cnc3ccccc32)nc1-c1ccc(Cl)cc1 [Example 176, 3-[2-(1H-benzimidazol-1-yl)-4-(4-chlorophenyl)-5-oxazolyl]-N-(5-chloro-2-methylbenzyl)propionamide] | 217 to 219
35 | O=C(CCc1oc(-n2cnc3ccccc32)nc1-c1ccc(Cl)cc1)NCc1cccc(-c2ccccc2)c1 [Example 177, 3-[2-(1H-benzimidazol-1-yl)-4-(4-chlorophenyl)-5-oxazolyl]-N-(3-phenylbenzyl)propionamide] | 201 to 202
